Measured values from patent US12479821B2 (MBD CO., LTD., priority 2019, dated 2025).

Target: T1, CYP4A (Homo sapiens, UniProt Q02928)
T1 construct: host or cells: bactosome, i.e. bacterial membrane preparation (own knowledge of the term)
T1 sequence (Q02928 5-519): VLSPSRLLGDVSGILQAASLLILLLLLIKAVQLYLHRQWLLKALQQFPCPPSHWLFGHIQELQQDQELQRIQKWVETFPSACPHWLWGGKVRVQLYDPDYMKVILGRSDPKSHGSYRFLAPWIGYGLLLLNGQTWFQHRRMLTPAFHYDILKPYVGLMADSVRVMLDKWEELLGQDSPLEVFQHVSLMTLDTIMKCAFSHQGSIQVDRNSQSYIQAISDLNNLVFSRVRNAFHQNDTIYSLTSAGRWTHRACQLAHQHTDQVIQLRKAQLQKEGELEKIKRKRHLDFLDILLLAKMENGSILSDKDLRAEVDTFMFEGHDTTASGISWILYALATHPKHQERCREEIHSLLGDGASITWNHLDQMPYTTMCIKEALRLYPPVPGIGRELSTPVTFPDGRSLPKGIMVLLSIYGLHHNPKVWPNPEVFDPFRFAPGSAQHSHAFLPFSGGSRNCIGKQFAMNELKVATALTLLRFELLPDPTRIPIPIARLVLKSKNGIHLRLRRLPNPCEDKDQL
Assay: CYP4A enzyme assay (Luciferin-ME luminescence, CYP4A bactosome)
Type: biochemical
Conditions: compound concentration 5 μM; 25%-50%; read-out: % Inhibition 25%-50%
Method in brief: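 CYP4A bactosome preincubated 15 min at room temperature with compound (5 μM) in 100 mM KPO4, 0.1% BSA, 1 mM DTT. Luciferin-ME (5 mM) plus NADPH regeneration system added, 30 min at room temperature, then detection reagent for 15 min. Inhibition derived from luminescence versus controls.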

| inhibition at 5 µM [%] | Structure (SMILES) |
| --- | --- |
| 25 to 50 | Cc1cc(N2CCN(C(=O)C3CCCN(S(=O)(=O)c4ccccc4)C3)CC2)c2ccccc2n1 (centres unmarked) [Formula 19, (4-(2-methylquinolin-4-yl)piperazin-1-yl) (1-(phenylsulfonyl)piperidin-3-yl) methanone] |
| 25 to 50 | Cc1cc(N2CCN(C(=O)C3CCCN(S(=O)(=O)c4ccc(Br)cc4)C3)CC2)c2ccccc2n1 (centres unmarked) [Formula 40, (1-((4-bromophenyl)sulfonyl)piperidin-3-yl) (4-(2-methylquinolin-4-yl)piperazin-1-yl)methanone] |
| 25 to 50 | O=C(O)c1ccc(S(=O)(=O)N2CCCC(C(=O)N3CCN(c4ccnc5cc(Cl)ccc45)CC3)C2)cc1 (centres unmarked) [Formula 98, 4-((3-(1-(7-chloroquinolin-4-yl)piperazine-1-carbonyl)piperidin-1-yl)sulfonyl)benzoic acid] |

Same assay, conditions: compound concentration 5 μM; 75% or more; read-out: % Inhibition 75% or more

| Structure (SMILES) | inhibition at 5 µM [%] |
| --- | --- |
| O=C(C1CCCN(S(=O)(=O)c2cccc([N+](=O)[O-])c2)C1)N1CCN(c2ccnc3cc(F)ccc23)CC1 (centres unmarked) [Formula 51, (4-(7-fluoroquinolin-4-yl)piperazin-1-yl) (1-(3-nitrophenylsulfonyl)piperidin-3-yl) methanone] | ≥ 75 |
| O=C(C1CCCN(S(=O)(=O)c2ccc(F)cc2)C1)N1CCN(c2ccnc3ccccc23)CC1 (centres unmarked) [Formula 75, (1-(4-fluorophenylsulfonyl)piperidin-3-yl) (4-(quinolin-4-yl)piperazin-1-yl) methanone] | ≥ 75 |
| CC(=O)Nc1ccc(S(=O)(=O)N2CCCC(C(=O)N3CCN(c4ccnc5cc(F)ccc45)CC3)C2)cc1 (centres unmarked) [Formula 45, N-(4-(3-(1-(7-fluoroquinolin-4-yl)piperazine-4-carbonyl)piperidin-1-ylsulfonyl)phenyl) acetamide] | ≥ 75 |
| O=C(C1CCCN(S(=O)(=O)c2ccc(-c3ccncc3)cc2)C1)N1CCN(c2ccnc3cc(F)ccc23)CC1 (centres unmarked) [Formula 106, (4-(7-fluoroquinolin-4-yl)piperazin-1-yl) (1-(4-(pyridin-4-yl)phenylsulfonyl)piperidin-3-yl) methanone] | 0 |
| O=C(C1CCCN(S(=O)(=O)c2cccc(Br)c2)C1)N1CCN(c2ccnc3cc(F)ccc23)CC1 (centres unmarked) [Formula 62, (1-(3-bromophenylsulfonyl)piperidin-3-yl) (4-(7-fluoroquinolin-4-yl)piperazin-1-yl) methanone] | ≥ 75 |
| O=C([C@@H]1CCCN(S(=O)(=O)c2ccc(-c3ccncc3)cc2)C1)N1CCN(c2ccnc3cc(F)ccc23)CC1 [Formula 107, (R)-(4-(7-fluoroquinolin-4-yl)piperazin-1-yl) (1-(4-(pyridin-4-yl)phenylsulfonyl)piperidin-3-yl) methanone] | ≥ 75 |
| O=C(C1CCCN(S(=O)(=O)c2ccc([N+](=O)[O-])cc2)C1)N1CCN(c2ccnc3cc(Cl)ccc23)CC1 (centres unmarked) [Formula 117, (4-(7-chloroquinolin-4-yl)piperazin-1-yl) (1-(4-nitrophenylsulfonyl)piperidin-3-yl) methanone] | ≥ 75 |
| O=C(C1CCCN(S(=O)(=O)c2ccc([N+](=O)[O-])cc2)C1)N1CCN(c2ccnc3cc(F)ccc23)CC1 (centres unmarked) [Formula 50, (4-(7-fluoroquinolin-4-yl)piperazin-1-yl) (1-(4-nitrophenylsulfonyl)piperidin-3-yl) methanone] | ≥ 75 |
| Cc1cc(N2CCN(C(=O)C3CCCN(S(=O)(=O)c4ccc([N+](=O)[O-])cc4)C3)CC2)c2ccccc2n1 (centres unmarked) [Formula 18, (4-(2-methylquinolin-4-yl)piperazin-1-yl) (1-(4-nitrophenylsulfonyl)piperidin-3-yl) methanone] | ≥ 75 |
| Cc1ncc(-c2ccc(S(=O)(=O)N3CCCC(C(=O)N4CCN(c5ccnc6ccccc56)CC4)C3)cc2)cn1 (centres unmarked) [Formula 115, (1-(4-(2-methylpyrimidin-5-yl)phenylsulfonyl)piperidin-3-yl) (4-(quinolin-4-yl)piperazin-1-yl) methanone] | ≥ 75 |
| O=C(C1CCCN(S(=O)(=O)c2cccc(-c3cccnc3)c2)C1)N1CCN(c2ccnc3cc(F)ccc23)CC1 (centres unmarked) [Formula 110, (4-(7-fluoroquinolin-4-yl)piperazin-1-yl) (1-(3-(pyridin-3-yl)phenylsulfonyl)piperidin-3-yl) methanone] | ≥ 75 |
| CCCCc1ccc(N=CNO)c(C)c1 [HET-0016, N-hydroxy-N′-(4-butyl-2-methylphenyl)-formamidine, reference compound] | ≥ 75 |

Results, then the compound that gave them:

| inhibition at 5 µM [%] | Structure (SMILES) |
| --- | --- |
| ≥ 75 | COc1cccc(S(=O)(=O)N2CCCC(C(=O)N3CCN(c4ccnc5cc(F)ccc45)CC3)C2)c1 (centres unmarked) [Formula 58, (4-(7-fluoroquinolin-4-yl)piperazin-1-yl) (1-(3-methoxyphenylsulfonyl)piperidin-3-yl) methanone] |
| ≥ 75 | CC(=O)c1ccc(S(=O)(=O)N2CCCC(C(=O)N3CCN(c4ccnc5cc(F)ccc45)CC3)C2)cc1 (centres unmarked) [Formula 54, 1-(4-(3-(1-(7-fluoroquinolin-4-yl)piperazine-4-carbonyl)piperidin-1-ylsulfonyl)phenyl) ethanone] |
| ≥ 75 | CN(C)c1ccc(S(=O)(=O)N2CCCC(C(=O)N3CCN(c4ccnc5cc(F)ccc45)CC3)C2)cc1 (centres unmarked) |
| 0 | O=C([C@@H]1CCCN(S(=O)(=O)c2ccc(Br)cc2)C1)N1CCN(c2ccnc3cc(F)ccc23)CC1 [Formula 57, (R)-(1-(4-bromophenylsulfonyl)piperidin-3-yl) (4-(7-fluoroquinolin-4-yl)piperazin-1-yl) methanone] |
| ≥ 75 | O=C(C1CCCN(S(=O)(=O)c2ccc(F)cc2)C1)N1CCN(c2ccnc3cc(F)ccc23)CC1 (centres unmarked) [Formula 42, (1-((4-fluorophenyl)sulfonyl)piperidin-3-yl) (4-(7-fluoroquinolin-4-yl)piperazin-1-yl) methanone] |
| ≥ 75 | CN(C)c1ccc(S(=O)(=O)N2CCCC(C(=O)N3CCN(c4ccnc5cc(Cl)ccc45)CC3)C2)cc1 (centres unmarked) [Formula 4, (4-(7-chloroquinolin-4-yl)piperazin-1-yl) (1-((4-(dimethylamino)phenyl)sulfonyl)piperidin-3-yl) methanone] |
| ≥ 75 | O=C(C1CCCN(S(=O)(=O)c2ccc(Br)cc2)C1)N1CCN(c2ccnc3cc(F)ccc23)CC1 (centres unmarked) [Formula 56, (1-(4-bromophenylsulfonyl)piperidin-3-yl) (4-(7-fluoroquinolin-4-yl)piperazin-1-yl)methanone] |
| ≥ 75 | COc1cccc(S(=O)(=O)N2CCCC(C(=O)N3CCN(c4ccnc5cc(Cl)ccc45)CC3)C2)c1 (centres unmarked) [Formula 14] |

Same assay, conditions: compound concentration 5 μM; '50%-75%'; read-out: % Inhibition 50%-75%

| Structure (SMILES) | inhibition at 5 µM [%] |
| --- | --- |
| O=C(C1CCCN(S(=O)(=O)c2cccc(F)c2)C1)N1CCN(c2ccnc3cc(Cl)ccc23)CC1 (centres unmarked) [Formula 8, (4-(7-chloroquinolin-4-yl)piperazin-1-yl) (1-((3-fluorophenyl)sulfonyl)piperidin-3-yl) methanone] | 50 to 75 |
| COc1cccc(S(=O)(=O)N2CCCC(C(=O)N3CCN(c4cc(C)nc5ccccc45)CC3)C2)c1 (centres unmarked) [Formula 39, (1-(3-methoxyphenylsulfonyl)piperidin-3-yl) (4-(2-methylquinolin-4-yl)piperazin-1-yl) methanone] | 50 to 75 |
| CN(C)C(=O)c1ccc(S(=O)(=O)N2CCCC(C(=O)N3CCN(c4ccnc5cc(Cl)ccc45)CC3)C2)cc1 (centres unmarked) [Formula 99, 4-(3-(1-(7-chloroquinolin-4-yl)piperazine-4-carbonyl)piperidin-1-ylsulfonyl)-N,N-dimethylbenzamide] | 50 to 75 |
| Nc1ccc(S(=O)(=O)N2CCCC(C(=O)N3CCN(c4ccnc5ccccc45)CC3)C2)cc1 (centres unmarked) [Formula 97, (1-(4-aminophenylsulfonyl)piperidin-3-yl) (4-(quinolin-4-yl)piperazin-1-yl) methanone] | 0 |
| O=C(C1CCCN(S(=O)(=O)c2cccc(O)c2)C1)N1CCN(c2ccnc3cc(Cl)ccc23)CC1 (centres unmarked) [Formula 92, (4-(7-chloroquinolin-4-yl)piperazin-1-yl) (1-(3-hydroxyphenylsulfonyl)piperidin-3-yl) methanone] | 50 to 75 |
| Cc1cc(N2CCN(C(=O)C3CCCN(S(=O)(=O)c4ccc(C#N)cc4)C3)CC2)c2ccccc2n1 (centres unmarked) [Formula 35, 4-(3-(1-(2-methylquinolin-4-yl)piperazine-4-carbonyl)piperidin-1-ylsulfonyl)benzonitrile] | 50 to 75 |

Now from value to compound:

| inhibition at 5 µM [%] | Structure (SMILES) |
| --- | --- |
| 50 to 75 | COC(=O)c1ccc(S(=O)(=O)N2CCCC(C(=O)N3CCN(c4ccnc5cc(Cl)ccc45)CC3)C2)cc1 (centres unmarked) [Formula 12, methyl 4-((3-(1-(7-chloroquinolin-4-yl)piperazine-1-carbonyl)piperidin-1-yl)sulfonyl)benzoate] |
| 50 to 75 | COc1ccc2c(N3CCN(C(=O)C4CCCN(S(=O)(=O)c5ccc(O)cc5)C4)CC3)ccnc2c1 (centres unmarked) [Formula 91, (1-(4-hydroxyphenylsulfonyl)piperidin-3-yl) (4-(7-methoxyquinolin-4-yl)piperazin-1-yl)methanone] |

Same assay, conditions: compound concentration 5 μM; mark in column '25% or less'; read-out: % Inhibition 25% or less

| inhibition at 5 µM [%] | Structure (SMILES) |
| --- | --- |
| ≤ 25 | O=C(C1CCCN(S(=O)(=O)c2ccccc2)C1)N1CCN(c2cc(C(F)(F)F)nc3ccccc23)CC1 (centres unmarked) [Formula 64, (1-(phenylsulfonyl)piperidin-3-yl) (4-(2-(trifluoromethyl)quinolin-4-yl)piperazin-1-yl)methanone] |
